According to US20040266774A1, “Amide compounds” (FUJISAWA PHARMACEUTICAL CO., LTD., priority 1999, published 2004):

Assays:
[1] = target: T1, 5-HT2c binding site (Rattus norvegicus, UniProt P08909); assay: [3H]-mesulergine binding; conditions: displacement of [3H]-mesulergine (1 nM) in rat prefrontal cortex membranes; test drugs 10^-6 M; 30 nM spiperone present; 37° C., 30 minutes
T1 construct: ability to displace [^3H]-mesulergine in the rat prefrontal cortex; from tissue; host or cells: rat prefrontal cortex membrane suspension
T1 sequence (P08909 33-460): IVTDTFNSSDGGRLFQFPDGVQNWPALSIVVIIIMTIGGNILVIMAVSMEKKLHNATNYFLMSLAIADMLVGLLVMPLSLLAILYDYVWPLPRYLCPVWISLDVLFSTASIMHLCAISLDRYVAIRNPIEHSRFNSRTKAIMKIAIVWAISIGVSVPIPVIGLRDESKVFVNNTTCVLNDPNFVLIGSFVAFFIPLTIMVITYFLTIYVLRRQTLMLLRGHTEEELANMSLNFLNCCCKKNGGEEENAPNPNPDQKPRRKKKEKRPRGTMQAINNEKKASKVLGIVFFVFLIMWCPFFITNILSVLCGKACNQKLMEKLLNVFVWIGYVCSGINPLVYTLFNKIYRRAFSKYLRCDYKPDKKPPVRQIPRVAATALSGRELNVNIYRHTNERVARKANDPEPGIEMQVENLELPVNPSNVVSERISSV
Method: [^3H]-mesulergine Binding
The affinity of the test drugs for the 5-HT2c binding site can be determined by assessing their ability to displace [^3H]-mesulergine in the rat prefrontal cortex. The method employed was similar to that of Pazos et al, 1984.
The membrane suspension ([…]) was incubated with [^3H]-mesulergine (1 nM) in Tris HCl buffer containing CaCl2 4 mM and ascorbic acid 0.1% (pH 7.4) at 37° C. for 30 minutes. Non-specific binding was measured in the presence of mianserin (1 μM). 30 nM spiperone was used to prevent binding to 5-HT2A sites. Test drugs (10^−6 M) were added in a volume of 100 μl. The total assay volume was 1000 μl. Incubation was stopped by rapid filtration using a Brandel cell harvester and radioactivity measured by scintillation counting.
The IC50 values were determined using a four parameter logistic program (DeLean 1978) and the pKi (the negative logarithm of the inhibition constant) calculated from the Cheng Prusoff equation where: [formula]
C=concentration of [^3H]-mesulergine
Kd=affinity of mesulergine for 5-HT2c binding site.

Structure (SMILES)	Inhibition (%) [1] [%]	melting point [°C]
Cn1ccc2cc(NC(=O)Nc3cccnc3)ccc21 [(1), N-(1-Methyl-1H-indol-5-yl)-N′-(3-pyridyl)urea, reference compound]	21	–
O=C(Nc1cccc(-c2cccnc2)c1)c1cccc2c1Cc1ccccc1-2 [(2), N-(3-(pyridin-3-yl)phenyl)-9H-fluorene-1-carboxamide]	74	–
O=C(Nc1cccc(-n2ccnc2)c1)c1csc(-c2ccccc2)n1 [Example 25, N-(3-(imidazol-1-yl)phenyl)-2-phenylthiazole-4-carboxamide]	–	131 to 134
O=C(Nc1cccc(-c2ccnnc2)c1)c1cccc2c1Cc1ccccc1-2 [(4), N-(3-(pyridazin-4-yl)phenyl)-9H-fluorene-1-carboxamide]	64	–
O=C(Nc1cccc(-c2cncnc2)c1)c1cccc2c1Cc1ccccc1-2 [(3), N-(3-(pyrimidin-5-yl)phenyl)-9H-fluorene-1-carboxamide]	92	–
